The METLIN SMRT retention time set (Domingo-Almenara et al. 2019)

Assay: gradient 5% acetonitrile 3 min, to 50% in 2 min, to 85% in 15 min, held 3 min, 100 µL/min
Conditions: column: Zorbax Extend-C18 2.1 x 50 mm; eluents: water / acetonitrile, 0.1% formic acid
In short: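 Values are retention times taken from adduct peaks that software picked and an analyst inspected. The pure standards were run as mixtures of ~100 molecules on HPLC linked to a quadrupole time-of-flight mass spectrometer, in positive and negative ionization mode. A Zorbax Extend-C18 column (2.1 × 50 mm, 1.8 μm) was used at 100 μL/min with water and acetonitrile, each including 0.1% formic acid.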

Structure (SMILES)	RP-LC retention time [s]
CN(C)c1ccc(/C=C2\C(=O)Nc3ccccc32)cc1	1010
CCCNC(=O)C1CCCN(c2ccc(=O)n(-c3cccc(F)c3)n2)C1 (centres undefined)	699
Cc1ccc(-c2noc(-c3cccc(S(=O)(=O)NCCN4CCC(C)CC4)c3)n2)cc1	831
CCCN(CC1CCOC1)C(=O)Nc1cccc(Cl)c1F (centres undefined)	853
CCOc1ccc(C2c3c(oc4ccc(C)cc4c3=O)C(=O)N2CCCN2CCOCC2)cc1 (centres undefined)	812
Cn1c(N)c(S(=O)(=O)N2CCN(c3ccccc3F)CC2)c(=O)n(C)c1=O	701
Cn1nc(-c2nc(C3CC3)no2)c2c1CCN(C(=O)Nc1ccccc1Cl)C2	871
CCCN(C(=O)c1ccccc1OC)c1nc(-c2ccccc2)cs1	1310
Cc1cc2[nH]c(C(=O)Nc3cc(F)c(F)cc3F)c(CN3CCOCC3)c2s1	737
O=C(Cc1ccc(F)cc1)N[C@H](Cc1ccccc1)C(=O)NCc1cscn1	741
O=C(c1cccs1)N1CCN(c2ccc(=O)n(-c3ccccc3)n2)CC1	733
CSc1ccc(CNC(=O)c2ccc3nc(CCc4ccc(NC(C)=O)cc4)[nH]c3c2)cc1	663
CC1CCc2nc3ncn(CC(=O)NC(C)c4ccccc4)c(=O)c3cc2C1 (centres undefined)	762
COc1ccc(OCc2noc(CNC(=O)Cc3c[nH]c4ccccc34)n2)cc1	681
COc1ccc(N2CCN(CC(O)c3ccc(C)cc3)CC2)cc1 (centres undefined)	677
Cn1nc(-c2ccccc2)nc1C1CN(C(=O)NCC2CCCO2)C1 (centres undefined)	625
CCCCOc1ccc(NC(=O)Nc2ccc(N3CCCS3(=O)=O)cc2)cc1	851
O=c1ccc(-c2cccc(Cl)c2)nn1Cc1nc(-c2cccs2)no1	1000
CC(=O)NCC(=O)N1CC(F)(F)C[C@H]1c1nc(C2CC2)no1	639
CC(=O)Nc1ccc(C(=O)N2CCN(c3cc(-c4cccs4)[nH]n3)CC2)cc1	641
COCCN1C(=O)[C@H]2CN(Cc3cc(OC)c(OC)c(OC)c3)C[C@H]2C1=O	578
CC(C)N1CCN(C(=O)c2cn(-c3cc(N4CCSCC4)ncn3)cn2)CC1	596
Cc1cc(C(=O)N2CC(N(C(=O)NC(C)C)C3CCOCC3)C2)nn1C	576

Structure (SMILES)	RP-LC retention time [s]
COc1cccc(S(=O)(=O)N2CCC(N3CCN(Cc4ccccc4)C(=O)C3=O)CC2)c1	763
C=CCc1ccccc1OCCn1c(CN(C)C(=O)c2ccco2)nc2ccccc21	702
O=C(COc1cccc2ccc(N3CCOCC3)nc12)Nc1ccc(OC(F)(F)F)cc1	703
CCCC(NC(=O)Cc1ccc(C)cc1)C(=O)Nc1nc2ccccc2[nH]1 (centres undefined)	722
CCc1ccc(OC(C)C(=O)N(Cc2ccc(C)o2)C2CCS(=O)(=O)C2)cc1 (centres undefined)	984
CCc1nnc(-c2cc(C)n(CC(=O)Nc3cc(C)ccc3C)c2C)o1	789
O=C1[C@H]2CN(Cc3cc(F)cc(F)c3)C[C@H]2C(=O)N1CCc1ccccc1	957
COc1ccc(-c2noc(C3CC(=O)N(c4cc(C)cc(C)c4)C3)n2)cc1 (centres undefined)	1040
Cc1ccn2cc(-c3ccc(NS(=O)(=O)c4ccc(Br)cc4)cc3)nc2n1	689
COc1ccccc1N1CCN(CCN2C(=O)c3ccccc3C(C)(C)C2=O)CC1	787
CC(NC(=O)C1CCN(CCc2cn(C)c3ncccc23)CC1)c1ccccc1 (centres undefined)	644
COCCN1C(=O)CCc2cc(NS(=O)(=O)c3ccc(OC)c(OC)c3)ccc21	569
CN(CCc1noc(-c2ccc(F)cc2)n1)C(=O)Nc1ccccc1Cl	983
CCC(=O)N1CCc2c(sc3ncnc(N4CCCC4)c23)C1	641
CCc1cc(=O)n(CC(=O)Nc2cccc(Br)c2)c(N2CCOCC2)n1	831
CCOc1nc2ccccc2nc1N1CCCC(C(=O)Nc2cccc3ccccc23)C1 (centres undefined)	1230
CC(C)CN1C(=O)c2ccccc2C(C(=O)NCc2ccccn2)C1c1cccs1 (centres undefined)	632
COc1ccc(NC(=O)c2cn(-c3cc(N4CCCC4)ncn3)cn2)cc1OC	748
COc1ccc(-c2nc(-c3ccc4c(c3)oc(=O)n4C)no2)c(OC)c1	959
Cc1nn2c(CNC(=O)c3cccc(C(F)(F)F)c3)c(C)nc2s1	688
O=C(CS(=O)Cc1ccco1)NC/C=C\COc1cc(CN2CCCCC2)ccn1 (centres undefined)	632
CCc1ccc(N2CC(c3noc(-c4ccccc4C)n3)CC2=O)cc1 (centres undefined)	1160
Cc1nc([C@@H]2CN(C(=O)CCc3nc4ccccc4s3)C[C@H]2C(N)=O)n[nH]1	599

Structure (SMILES)	RP-LC retention time [s]
CCCSCCCNc1nc(-c2nnc(-c3ccc(C)cc3)o2)nc2ccccc12	1160
O=C(Nc1cccc(C(F)(F)F)c1)Nc1c(-c2ccncc2)nc2ccccn12	655
Cn1nc(C(C)(C)C)cc1C(=O)N[C@@H](Cc1cccc(Cl)c1)C(=O)NCC#N	946
COCC(=O)N1CCCn2nc(-c3ccccc3)cc2C1	669
O=c1c2c(CO)c(-c3ccccc3)nn2ccn1Cc1ccccc1F	902
COC(=O)c1cccc(NC(=O)CSc2nccc(N3CCN(c4ccc(OC)cc4)CC3)n2)c1	743
CS(=O)(=O)N1CCC(C(=O)Nc2ccc(Br)cc2F)Oc2ccccc21 (centres undefined)	990
CCc1nc2cc(-c3noc(Cc4ccccc4F)n3)ccc2o1	1050
O=C(O)C1CN(C(=O)c2ccc3c(c2)OCO3)C1	579
COc1ccc(-c2nnc(Cc3nc(-c4ccc(F)cc4)no3)o2)cc1OC	907
CC(=O)N1c2ccc(S(=O)(=O)N3CCCCCC3)cc2CC1C(=O)NCc1ccccc1Cl (centres undefined)	950
COC(=O)c1cn(Cc2cc(C)ccc2C)nc1S(=O)(=O)N(C)c1ccc(C)cc1	1060
CC1CC(=O)N(CC(=O)NCc2ccc3c(c2)OCO3)c2ccccc2S1 (centres undefined)	741
Cc1ccccc1NC(=O)Cn1cnc2onc(C)c2c1=O	718
CCCS(=O)(=O)N1CCC(c2nc(CCOc3ccc(F)cc3)no2)C1 (centres undefined)	894
CC(C)CC(=O)N1CCCCCCNC(=O)[C@@H]2CCCC[C@@H]21	833
Cc1nc(C)c(C(=O)Nc2nc(-c3ccc(Br)cc3)c(C)s2)s1	1100
CCNC(=O)c1cc(C2CC2)[nH]n1	611
Cc1cccc(-c2noc(Cn3cnc4c(oc5ccccc54)c3=O)n2)c1	996
O=C(c1cccnc1)N1CCN(c2nnnn2-c2ccccc2)CC1	588
Cc1nc(-c2cc3cccc(C)c3nc2N2CCN(c3ccccc3F)CC2)no1	733
O=C(NC1CCCCC1N1C(=O)CSC1=O)c1cc(-c2ccc(F)cc2)n[nH]1 (centres undefined)	762
CCc1nncn1C1CCN(S(=O)(=O)c2ccc(OC)c(OC)c2)CC1	650

Structure (SMILES)	RP-LC retention time [s]
Cc1nc(-c2cccc(F)c2)sc1C(=O)N(C)C	799
Cc1oc2ccn(Cc3ccc(F)cc3)c(=O)c2c1C(=O)NCC1CC1	988
Cc1c(N2CCC(C(=O)NCC3CCCO3)CC2)c(=O)n(CC(C)C)c(=O)n1-c1ccccc1 (centres undefined)	832
O=S(=O)(Nc1ccc(Cn2cncn2)cc1)c1ccc2c(c1)CCCC2	786
COc1ccc(C2(C(=O)N3CC(c4noc(COc5ccc(F)cc5)n4)C3)CC2)cc1	974
O=C(C1=CCN(Cc2ccc(F)cc2)CC1)N1CCN(c2ccccc2Cl)CC1	723
Cn1nc(-c2nnc(-c3ccc(F)cc3)o2)c2c1CCN(S(=O)(=O)c1ccc(Cl)s1)C2	1010
CCCc1ccc(S(=O)(=O)N2CCC(n3cnc4ccc(C)cc4c3=O)CC2)cc1	1100
Cc1cc(C)cc(NC(=O)C2CCN(S(C)(=O)=O)c3cc(Cl)ccc3O2)c1 (centres undefined)	1020
CCN(Cc1ccccc1)C(=O)c1ncn2c1C(=O)N(CC)C(C)(C(=O)NCc1ccc(F)cc1)C2 (centres undefined)	762
COc1ccc(C)cc1NC(=O)c1nc(C2CCC2)oc1C	1290
CC1CCN(c2nc(C(=O)N3CCN(c4ccccc4)CC3)nc3c2cnn3C)CC1	956
Cc1ccc(CN2CCC(C3CCN(S(C)(=O)=O)CC3)C2)nc1 (centres undefined)	580
CSc1nnc(-c2nn(C)c3c2CN(C(=O)Cc2ccc(C)cc2)CC3)n1C	736
O=C(Nc1ccccc1)C1CCCN(c2nc3ccsc3c(=O)n2Cc2ccc(F)cc2)C1 (centres undefined)	971
CCc1cc(C(=O)Nc2ccc(C)cc2F)nc2ccnn12	1140
COc1cccc(-c2noc(COC(=O)C3=CN(C)S(=O)(=O)N=C3C)n2)c1	926
COc1ccc(CCNC(=O)C2CC(=O)N(c3n[nH]c4ccccc34)C2)cc1OC (centres undefined)	657
Cc1ccc(-c2nc(NC(=O)CCCOc3ccc(Cl)cc3)sc2C)cc1	1250
CC(=O)Nc1ccccc1SC(CC(=O)c1ccco1)c1ccc2c(c1)OCO2 (centres undefined)	858
